“Also recorded” adds a separate entry of the source. Marks after values point to notes of the source that are not given here.
Experiments:
[1] = tested on: RAR γ; assay: RAR induction in lungs of A/J mice exposed to isotretinoin aerosol, RAR γ; assay type: in vivo, mouse; settings: inhaled mid dose, urethane-treated A/J mice
Experimental: Antibodies: Polyclonal antibodies to RARα, β and γ (Santa Cruz Biotechnology Inc., San Francisco, Calif.) were used with a BM Chemiluminescence Western Blotting Kit (Mouse/Rabbit) (Boehringer Mannheim Corporation, Indianapolis).
Experimental Design: Five lungs each from the urethane-treated vehicle, low dose, and mid dose animals were snap frozen in liquid nitrogen and stored at −70° C. for determination of RARs α, β and γ by Western Blot Analysis. […] The lungs were homogenized and the RARs were determined by standard Western Blotting (21, 22).
Samples: Lung tissue was collected, frozen on dry ice and kept at −70° C. until used. A 500 mg portion was diced in small pieces and homogenized in 300 μl of cold PBS using a hand held homogenizer for 2-3 min. Samples were centrifuged at 500 rpm for 5 min or until the supernatant was clear. The pellet was suspended in 400 μl of cold Buffer A [2 μl 0.5 M EDTA, 10 μl mM EGTA, 50 μl 100 mM PMSF, 10 μl 1M DTT, 10 ml (10 mM HEPES pH 7.9+10 mM KCl)], and left at ice temperature for 15 min. A 25 μl volume of 10% solution of NP−40 was added and the samples were mixed in a vortex vigorously for 10 sec. Samples were centrifuged at 14,000 rpm for 1 min at 4° C. and the pellet was treated once more in this fashion. […]

[2] = tested on: A/J mice; assay: Lung carcinogenesis model: carcinogen-treated A/J mice exposed to isotretinoin aerosols; assay type: in vivo, mouse; settings: for Efficacy (Carcinogen): 10-16 weeks; for non-significant reduction of tumor multiplicity: low dose; for reduction in multiplicity of tumor nodules: mid isotretinoin dose
Description: The A/J mouse is a well-established animal model for preclinical chemoprevention studies. This strain has a hereditary predisposition for lung cancer, the so-called pulmonary adenoma susceptibility (Pas) genes. A strong candidate for one of these genes, Pas-1, is the K-ras protooncogene. Carcinogenesis in this model with NNK as the inciting agent has been studied so that the times required to develop hyperplastic areas, adenomas, and carcinomas are well known. In addition, the timing of molecular changes associated with carcinogenesis has been studied and are similar to those in humans. In both species, K-ras mutations are common early events.
Powdered isotretinoin was dissolved in 100% ethanol plus 0.1% α-tocopherol and 0.1% ascorbyl palmitate to give concentrations of isotretinoin ranging from 0.1 to 10 mg/ml. The formulations were prepared monthly. The solutions were protected from light and stored at −5° C. until use. Ultraviolet-visible spectrophotometric verification of the formulated test article concentration was performed on all batches in advance of inhalation treatments with the test article solution. Only formulations within ±10% of the targeted concentration were used on study.
Within 24 h of the last inhalation exposure, animals were euthanized by intraperitoneal injection of pentobarbital and their lungs were removed and fixed in Bouin's solution or flash frozen for RAR determination. The lungs were evaluated in a blinded fashion so that neither carcinogen nor isotretinoin dose levels were known to the evaluator, who visually counted hyperplastic areas and adenomas on the lung pleural surface as previously described. The significance of the differences between the mean tumor incidence of the treatment and the control groups was determined using the Mann-Whitney Rank Sum test (Statmost TM, DataMost Corp., Sandy, Utah).

[3] = tested on: liver RARs; assay: Western blot of rat liver RARs after inhaled 13-cis RA; assay type: in vivo; settings: not shown
Experimental: (§1) The experimental groups were as follows (Table 4):1. Vehicle (10/9 mix of PEG 300 and Ethanol with 0.5% of ascorbic acid and 0.5% phosphatidyl choline) control, day 1: rats (19) inhaled vehicle for 2 hr for one day; 2. […] Vehicle control, day 28: rats (16) inhaled vehicle as for group 1 for a period of 28 days; 5.
The experimental groups were as follows (Table 1): 1. Vehicle control: rats (3) inhaled vehicle for 240 minutes; 2.
Tissues were collected, frozen in dry ice and kept at −70° C. until used. 500 mg aliquots were diced in small pieces and homogenized in 300 μl of cold PBS, using the hand held homogenizer for 2˜3 minutes. Sample and washes were centrifuged at 5000×g for 20 minutes. The pellet was suspended in 400 μl of ice-cold Buffer A [2 μl 0.5M EDTA, 10 μl 100 mM EGTA, 50 μl 100MM PMSF, 10 μl 1M DTT, 10 ml (10 mM HEPES pH 7.9+10 mM KCl)], and left at ice temperature for 15 minutes. 25 μl of 10% solution of NP-40 was added and samples were mixed in a vortex vigorously for 10 seconds. Samples were centrifuged at 14,000×g for 1 minute at 4° C. and the pellet treated once more in this fashion (resuspended etc.). The supernatant was removed and 100 μl of ice-cold Buffer C [4 μl 0.5M EDTA, 20 μl 100 mM EGTA, 20 μl 100 mM PMSF, 2 μl 1M DTT, 2 ml (20 mM HEPES pH 7.9+0.4M NaCl)] was added. Pellets were resuspended by tapping gently on the bottom of the Eppendorf tubes. […]

[4] = tested on: RAR β; assay: Western blot of rat lung, inhaled 13-cis RA (experiment A), RAR β; assay type: in vivo; settings: for upregulation of lung tissue RAR (second named, β): daily deposited dose 6.4 mg/kg/day
Experimental: as §1
Tissues were collected, frozen in dry ice and kept at −70° C. until used. 500 mg aliquots were diced in small pieces and homogenized in 300 μl of cold PBS, using the hand held homogenizer for 2˜3 minutes. Sample and washes were centrifuged at 5000×g for 20 minutes. The pellet was suspended in 400 μl of ice-cold Buffer A [2 μl 0.5M EDTA, 10 μl 100 mM EGTA, 50 μl 100MM PMSF, 10 μl 1M DTT, 10 ml (10 mM HEPES pH 7.9+10 mM KCl)], and left at ice temperature for 15 minutes. 25 μl of 10% solution of NP-40 was added and samples were mixed in a vortex vigorously for 10 seconds. Samples were centrifuged at 14,000×g for 1 minute at 4° C. and the pellet treated once more in this fashion (resuspended etc.). The supernatant was removed and 100 μl of ice-cold Buffer C [4 μl 0.5M EDTA, 20 μl 100 mM EGTA, 20 μl 100 mM PMSF, 2 μl 1M DTT, 2 ml (20 mM HEPES pH 7.9+0.4M NaCl)] was added. Pellets were resuspended by tapping gently on the bottom of the Eppendorf tubes. Samples were rocked vigorously in a bucket of ice on an orbital shaker for 30 minutes. Samples were centrifuged at 14,000×g for 5 minutes at 4° C.
Samples were prepared by adding one part of the Sample Buffer to one part of the sample and mixing well. Samples were heated at 95° C. for 5 minutes to induce denaturation. 5 μl of Rainbow Standard and 5 μl of Biotinylated Molecular Marker were added to parallel wells. 20 μg protein per sample was loaded in each lane. Electrophoresis was performed with voltage set at 125V for about 1˜1.5 hours. Gel transfer was executed at 25V for 2 hours. The membrane was stained in Ponceau S. for 5 minutes and destained with one wash of 5% acetic acid. The membrane was then washed in TBS solution until the staining disappeared. […]

[5] = doses used in the MD Anderson study, based on pharmacokinetic data; cited from earlier work
[6] = tested on: second aerodigestive tumors; settings: oral, 1-2 mg/kg/day, previously treated head-and-neck cancer patients; cited from earlier work
[7] = BaP, weekly pulmonary dose 0.25 mg/kg
[8] = BaP, weekly pulmonary dose 4.0 mg/kg
[9] = NNK and BaP, A/J mice, inhalation
[10] = NNK, weekly pulmonary dose 0.25 mg/kg
[11] = NNK, weekly pulmonary dose 4.0 mg/kg
[12] = Urethane, weekly pulmonary dose 0.25 mg/kg
[13] = Urethane, weekly pulmonary dose 4.0 mg/kg

**Q.** Which “upregulation of lung tissue RAR γ over solvent (vehicle)” value [1] does the source give for `CC1=C(/C=C/C(C)=C/C=C/C(C)=C\C(=O)O)C(C)(C)CCC1` [13-cis RA, 13-cis-Retinoic Acid] here?
**A.** Its value is 3.7 fold.

**Q.** And the “Efficacy (Carcinogen)” value ([2]; 0.24 mg/kg weekly total deposited (inh), NNK, BaP, Maybe = trend for efficacy)?
**A.** Its value is “Maybe”.

**Q.** What about the “Efficacy (Carcinogen)” value ([2]; 0.24 mg/kg weekly total deposited (inh), urethane) of the same compound?
**A.** Its value is “No”.

**Q.** What about the “Efficacy (Carcinogen)” value ([2]; 1.6 mg/kg weekly total deposited (inh), NNK, BaP) of the same compound?
**A.** Its value is “Yes”.

**Q.** And the “Efficacy (Carcinogen)” value ([2]; 1.6 mg/kg weekly total deposited (inh), urethane)?
**A.** The value was “No”.

**Q.** What about the “Efficacy (Carcinogen)” value ([2]; 24.9 mg/kg weekly total deposited (inh), urethane, NNK, BaP) of the same compound?
**A.** Its value is “Yes (urethane, NNK, BaP)”.

**Q.** What about the “Hyperplastic Areas Per Lung Set (Mean ± SE)” value ([2]; BaP, weekly pulmonary dose 0.04 mg/kg, vehicle control 0.2) of the same compound?
**A.** Its value is 0.8 ± 0.3.

**Q.** What about the “Tumors Per Lung Set (Mean ± SE)” value ([2]; BaP, weekly pulmonary dose 0.04 mg/kg, vehicle control 9.0) of the same compound?
**A.** Its value is 6.4 ± 0.7^f.

**Q.** What about the “Total Lesions Per Lung Set (Mean ± SE)” value ([2]; BaP, weekly pulmonary dose 0.04 mg/kg, vehicle control 9.2) of the same compound?
**A.** Its value is 7.2 ± 0.8.

**Q.** And the “Hyperplastic Areas Per Lung Set (Mean ± SE)” value [2, 7]?
**A.** The value was 3.2 ± 0.4^d.

**Q.** And the “Total Lesions Per Lung Set (Mean ± SE)” value [2, 7]?
**A.** Its value is 6.1 ± 0.5^b.

**Q.** And the “Tumors Per Lung Set (Mean ± SE)” value [2, 7]?
**A.** Its value is 3.0 ± 0.5^d.

**Q.** And the “Hyperplastic Areas Per Lung Set (Mean ± SE)” value [2, 8]?
**A.** The value was 3.3 ± 0.9^d.

**Q.** And the “Total Lesions Per Lung Set (Mean ± SE)” value [2, 8]?
**A.** Its value is 5.2 ± 1.0^b.

**Q.** What about the “Tumors Per Lung Set (Mean ± SE)” value [2, 8] of the same compound?
**A.** Its value is 1.8 ± 0.5^d.

**Q.** What about the “weekly pulmonary dose with evidence of efficacy (as low as)” value [2, 9] of the same compound?
**A.** Its value is 0.25 mg/kg.

**Q.** What about the “weekly pulmonary dose with suggested efficacy” value [2, 9] of the same compound?
**A.** The value was 0.04 mg/kg.

**Q.** And the “Hyperplastic Areas Per Lung Set (Mean ± SE)” value ([2]; NNK, weekly pulmonary dose 0.04 mg/kg, vehicle control 1.3)?
**A.** The value was 2.0 ± 0.4.

**Q.** And the “Tumors Per Lung Set (Mean ± SE)” value ([2]; NNK, weekly pulmonary dose 0.04 mg/kg, vehicle control 2.5)?
**A.** Its value is 2.1 ± 0.3^e.

**Q.** And the “Total Lesions Per Lung Set (Mean ± SE)” value ([2]; NNK, weekly pulmonary dose 0.04 mg/kg, vehicle control 3.8)?
**A.** The value was 4.1 ± 0.6.

**Q.** And the “Hyperplastic Areas Per Lung Set (Mean ± SE)” value [2, 10]?
**A.** Its value is 3.3 ± 0.3^d.

**Q.** What about the “Total Lesions Per Lung Set (Mean ± SE)” value [2, 10] of the same compound?
**A.** Its value is 3.6 ± 0.3.

**Q.** And the “Tumors Per Lung Set (Mean ± SE)” value [2, 10]?
**A.** The value was 0.3 ± 0.2^d.

**Q.** And the “Hyperplastic Areas Per Lung Set (Mean ± SE)” value [2, 11]?
**A.** Its value is 3.8 ± 0.6^c.

**Q.** And the “Total Lesions Per Lung Set (Mean ± SE)” value [2, 11]?
**A.** Its value is 4.5 ± 0.7.

**Q.** And the “Tumors Per Lung Set (Mean ± SE)” value [2, 11]?
**A.** The value was 0.8 ± 0.3^d.

**Q.** What about the “Hyperplastic Areas Per Lung Set (Mean ± SE)” value ([2]; Urethane, weekly pulmonary dose 0.04 mg/kg, vehicle control 4.6) of the same compound?
**A.** The value was 3.6 ± 1.1.

**Q.** And the “Tumors Per Lung Set (Mean ± SE)” value ([2]; Urethane, weekly pulmonary dose 0.04 mg/kg, vehicle control 24.2)?
**A.** The value was 25.7 ± 1.7.

**Q.** What about the “Total Lesions Per Lung Set (Mean ± SE)” value ([2]; Urethane, weekly pulmonary dose 0.04 mg/kg, vehicle control 29.2) of the same compound?
**A.** The value was 29.3 ± 1.5.

**Q.** And the “Hyperplastic Areas Per Lung Set (Mean ± SE)” value [2, 12]?
**A.** The value was 5.9 ± 1.2.

**Q.** And the “Total Lesions Per Lung Set (Mean ± SE)” value [2, 12]?
**A.** The value was 32.2 ± 2.4.

**Q.** What about the “Tumors Per Lung Set (Mean ± SE)” value [2, 12] of the same compound?
**A.** Its value is 26.4 ± 2.1.

**Q.** What about the “Hyperplastic Areas Per Lung Set (Mean ± SE)” value [2, 13] of the same compound?
**A.** Its value is 5.3 ± 1.3.

**Q.** What about the “Total Lesions Per Lung Set (Mean ± SE)” value [2, 13] of the same compound?
**A.** Its value is 15.9 ± 1.9^d.

**Q.** What about the “Tumors Per Lung Set (Mean ± SE)” value [2, 13] of the same compound?
**A.** Its value is 10.6 ± 1.2^d.

**Q.** What about the “effect of treatment on numbers of tumors” value ([2]; low (lowest) isotretinoin dose) of the same compound?
**A.** Its value is “not affected by treatment at the 95% confidence level; also recorded: not significantly effective”.

**Q.** And the “non-significant reduction of tumor multiplicity” value ([2]; BaP-treated mice (p<0.13))?
**A.** Its value is 30%.

**Q.** What about the “non-significant reduction of tumor multiplicity” value ([2]; NNK-treated mice (p<0.30)) of the same compound?
**A.** Its value is 16%.

**Q.** What about the “reduction in multiplicity of tumor nodules” value ([2]; BaP-treated mice) of the same compound?
**A.** Its value is 67%.

**Q.** And the “reduction in multiplicity of tumor nodules” value ([2]; NNK-treated mice)?
**A.** Its value is 88%.

**Q.** And the “effect of inhaled 13-cis RA on liver RARs” value ([3]; 5 to 240 minutes daily for 14 days)?
**A.** The value was “not responsive”.

**Q.** And the “effect of inhaled 13-cis RA on liver RARs” value ([3]; same rats as FIG. 2A (experiment A))?
**A.** The value was “failed to show any increase”.

**Q.** What about the “induction of lung RAR (second named, β)” value ([4]; daily deposited dose 1.9 mg/kg/day, day 28) of the same compound?
**A.** The value was 8.0 fold.

**Q.** What about the “upregulation of lung tissue RAR (second named, β)” value ([4]; day 1) of the same compound?
**A.** Its value is 7.2 fold.

**Q.** And the “upregulation of lung tissue RAR (second named, β)” value ([4]; day 17)?
**A.** Its value is 10.0 fold.

**Q.** And the steady-state blood levels [5]?
**A.** Its steady-state blood levels is 100 to 200 ng/mL.

**Q.** And the “protection against second aerodigestive tumors” value [6]?
**A.** The value was “significantly protective”.
